# Experimental data reported in US20130059874A1, “SUBSTITUTED N-PHENYL SPIROLACTAM BIPYRROLIDINES, PREPARATION AND THERAPEUTIC USE THEREOF” (SANOFI, priority 2010, published 2013).
# Counter-ions that a name gives are not always drawn.
# Biological target: T1, rhesus (Macacca Mulatta) H3 receptor (Macaca mulatta, UniProt Q865E1)
# T1 construct: pcDNA5/FRT/TO (Invitrogen) containing the rhesus monkey (Macacca Mulatta) 445 amino acid H3 receptor
# Assay: Rhesus H3 radioligand binding assay ([3H]-Methylhistamine displacement, WGA SPA beads)
# Design: species or system rhesus monkey (Macacca Mulatta)
# Details: [3H]-Methylhistamine 2 nM, rhesus H3 membranes, 25° C., 1 hour; Cheng-Prusoff
# Description: Rhesus H3 membranes were prepared from the Flp-In T-REx 293 Cell Line (Invitrogen) stably transfected with pcDNA5/FRT/TO (Invitrogen) containing the rhesus monkey (Macacca Mulatta) 445 amino acid H3 receptor. (Genbank #AY231164). Stably transfected cultures were amplified in tissue culture flasks by standard tissue culture methods and induced to express rhesus H3 by exposure to 500 ng/ml tetracycline (Cellgro) for 24 hours. After induction, cells were dissociated from flasks utilizing Cell Stripper (Cellgro). Cells were centrifuged (1 K×g, 5 min) and pellet frozen in an ethanol-dry ice bath to disrupt cell membranes. Frozen cell pellet was re-suspended in 5 mM HEPES (pH 7.4, Invitrogen) at 10ml/1000 cm2 of harvested cells. The cell suspension was drawn through an 18 gauge needle (2-3×) followed by a 23 gauge needle (2-3×) to further disrupt cell membranes. The cell suspension was centrifuged (40K×g, 30 min). Cell membrane pellet was re-suspended in 5 mM HEPES (pH 7.4, Invitrogen) at a final protein concentration of 10 mg/ml. Rhesus H3 membranes were stored under liquid nitrogen prior to use in [3H]-Methylhistamine and GTPγS radioligand binding assays.
# Rhesus H3 radioligand binding assay was performed using rhesus H3 receptor membranes (prepared as described above), [3H]-Methylhistamine (Perkin Elmer) and WGA SPA beads (wheat germ agglutinin scintillation proximity assay) beads (Amersham). The assay was performed in 96-well Opti-Plates (Packard). Each reaction contained 50 μl rhesus H3 membranes (20-30 μg total protein), 50 μl WGA SPA beads (0.1 μg) and 50 μl of 83Ci/mmol [^3H]-Methylhistamine (final concentration 2 nM) and 50 μl of tested compound. The compounds of this invention and/or vehicle were diluted with binding buffer from 10 mM DMSO stocks. Assay plates were sealed with TopSeal (Perkin Elmer) and mixed on shaker (25° C., 1 hour). Assay plates were read on TopCount scintillation counter (Packard). Results were analyzed by Hill transformation and Ki values were determined by Cheng-Prusoff equation.
# T1 sequence (Q865E1 1-445): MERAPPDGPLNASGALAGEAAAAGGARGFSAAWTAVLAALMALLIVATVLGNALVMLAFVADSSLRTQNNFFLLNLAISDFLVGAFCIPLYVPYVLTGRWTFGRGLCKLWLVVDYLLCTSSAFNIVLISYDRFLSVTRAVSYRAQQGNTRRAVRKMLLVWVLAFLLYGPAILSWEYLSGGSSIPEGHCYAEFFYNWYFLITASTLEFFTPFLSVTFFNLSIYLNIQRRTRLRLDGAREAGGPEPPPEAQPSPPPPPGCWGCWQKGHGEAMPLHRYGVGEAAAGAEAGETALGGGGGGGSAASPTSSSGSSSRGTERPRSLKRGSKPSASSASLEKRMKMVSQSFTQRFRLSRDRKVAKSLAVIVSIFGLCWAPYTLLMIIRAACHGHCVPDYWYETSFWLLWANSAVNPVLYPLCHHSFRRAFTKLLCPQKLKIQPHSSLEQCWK
row,Compound,Ki [nM]
1,"Cc1cc(N2CC[C@H](N3CCC[C@@H]3C)C2)ccc1N1CCC2(CCC(O)CC2)C1=O (single isomer, unassigned) [Example 11]",35
2,"C[C@H]1CCCN1[C@H]1CCN(c2ccc(N3CCC4(CCCCC4)C3=O)cc2)C1 [Example 7, 2-[4-((2S,3′S)-2-Methyl-[1,3′]bipyrrolidinyl-1′-yl)-phenyl]-2-aza-spiro[4.5]decan-1-one]",6.44
3,"Cc1cc(N2CCC(N3CCC[C@@H]3C)CC2)ccc1N1CCC2(CCCCC2)C1=O [Example 1, 2-{2-Methyl-4-[4-((S)-2-methyl-pyrrolidin-1-yl)-piperidin-1-yl]-phenyl}-2-aza-spiro[4.5]decan-1-one trifluoroacetate]",0.477
4,"C[C@H]1CCCN1[C@H]1CCN(c2ccc(N3CCC4(CCCCC4)C3=O)c(F)c2)C1 [Example 9, 2-[2-Fluoro-4-((2S,3′S)-2-methyl-[1,3′]bipyrrolidinyl-1′-yl)-phenyl]-2-aza-spiro[4.5]decan-1-one]",41.6
5,"Cc1cc(N2CC[C@H](N3CCC[C@@H]3C)C2)ccc1N1CCC2(CCCCC2)C1=O [Example 8, 2-[2-Methyl-4-((2S,3′S)-2-methyl-[1,3]bipyrrolidinyl-1′-yl)-phenyl]-2-aza-spiro[4.5]decan-1-one]",10.6
6,COc1cc(N2CC[C@H](N3CCC[C@@H]3C)C2)ccc1N1CCC2(CCCCC2)C1=O [Example 10],2.65
7,"Cc1cc(N2CCC(N3CCC[C@@H]3C)CC2)ccc1N1CCC2(CCC(C(=O)O)CC2)C1=O (stereo partly drawn) [Example 5, 2-{2-Methyl-4-[4-((S)-2-methyl-pyrrolidin-1-yl)-piperidin-1-yl]-phenyl}-1-oxo-2-aza-spiro[4.5]decane-8-carboxylic acid]",58

# More lines, in order of falling Ki, values ahead:
row,Ki [nM],Compound
1,35.8,"C[C@H]1CCCN1[C@@H]1CCN(c2ccc(N3CCC4(CCCCC4)C3=O)c(N)c2)C1 [Example 6, 2-[2-Amino-4-((2S,3′R)-2-methyl-[1,3′]bipyrrolidinyl-1′-yl)-phenyl]-2-aza-spiro[4.5]decan-1-one trifluoro-acetic acid salt]"
2,30.7,"Cc1cc(N2CCC(N3CCC[C@@H]3C)CC2)ccc1N1CCC2(CCC(O)CC2)C1=O (stereo partly drawn) [Example 3, 8-Hydroxy-2-{2-methyl-4-[4-((S)-2-methyl-pyrrolidin-1-yl)-piperidin-1-yl]-phenyl}-2-aza-spiro[4.5]decan-1-one]"
3,12.7,"Cc1cc(N2CCC(N3CCC[C@@H]3C)CC2)ccc1N1CCCC2(CCCC2)C1=O [Example 2, 7-{2-Methyl-4-[4-((S)-2-methyl-pyrrolidin-1-yl)-piperidin-1-yl]-phenyl}-7-aza-spiro[4.5]decan-6-one trifluoro-acetic acid salt]"
4,11.4,"C[C@H]1CCCN1C1CCN(c2ccc(N3CCC4(CCCCC4)C3=O)c(N)c2)CC1 [Example 4, 2-{2-Amino-4-[4-((S)-2-methyl-pyrrolidin-1-yl)-piperidin-1-yl]-phenyl}-2-aza-spiro[4.5]decan-1-one trifluoro-acetate]"
